Reference: the NIST ThermoML archive (doi:10.1016/j.fluid.2016.09.021)
Numbers after ± are expanded uncertainties.

Settings: Liquid, Vibrating tube method

Cc1ccccc1 [toluene]
mass density [kg/m3]
Settings | 293 K | 313 K | 333 K | 353 K | 373 K | 393 K | 413 K | 433 K | 448 K | 468 K
2000 kPa | 871.2 ± 2 | 852.2 ± 2 | 833 ± 2 | 814.2 ± 2.1 | 794.2 ± 2.1 | 774.2 ± 2.1 | 753.1 ± 2.2 | 731.6 ± 2.2 | 714.3 ± 2.3 | 689.9 ± 2.3
3000 kPa | 871.9 ± 2 | 853 ± 2 | 834 ± 2 | 815.2 ± 2 | 795.4 ± 2.1 | 775.7 ± 2.1 | 754.9 ± 2.1 | 733.6 ± 2.2 | 716.6 ± 2.2 | 692.7 ± 2.3
4000 kPa | 872.6 ± 2 | 853.9 ± 2 | 834.9 ± 2 | 816.3 ± 2.1 | 796.6 ± 2.1 | 777.2 ± 2.1 | 756.5 ± 2.1 | 735.6 ± 2.2 | 718.9 ± 2.2 | 695.5 ± 2.3
5000 kPa | 873.2 ± 2 | 854.6 ± 2 | 835.8 ± 2 | 817.3 ± 2 | 797.8 ± 2.1 | 778.5 ± 2 | 758.3 ± 2.1 | 737.5 ± 2.1 | 721.1 ± 2.2 | 698.2 ± 2.3
10000 kPa | 876.8 ± 2 | 858.6 ± 2 | 840.2 ± 2 | 822.4 ± 2 | 803.8 ± 2.1 | 785.1 ± 2.1 | 766.1 ± 2.1 | 746.9 ± 2.1 | 731.4 ± 2.1 | 710.6 ± 2.2
20000 kPa | 883.4 ± 2 | 866.1 ± 2 | 848.2 ± 2 | 831.5 ± 2 | 814 ± 2.1 | 797 ± 2.1 | 779.5 ± 2.1 | 762.1 ± 2.1 | 748.5 ± 2.1 | 730.4 ± 2.1
30000 kPa | 889.3 ± 2 | 872.9 ± 2 | 855.9 ± 2 | 840.1 ± 2 | 823.5 ± 2.1 | 807.5 ± 2.1 | 791.3 ± 2.1 | 774.9 ± 2.1 | 762.6 ± 2.1 | 745.9 ± 2.1
40000 kPa | 895.1 ± 2 | 879 ± 2 | 863 ± 2 | 847.6 ± 2 | 832 ± 2.1 | 816.9 ± 2.1 | 801.6 ± 2.1 | 786.5 ± 2.1 | 774.7 ± 2.1 | 759.3 ± 2.1
50000 kPa | 900.5 ± 2 | 884.8 ± 2 | 869.2 ± 2 | 854.7 ± 2 | 840.2 ± 2.1 | 825.2 ± 2.1 | 810.8 ± 2.1 | 796.7 ± 2.1 | 785.5 ± 2.1 | 771.1 ± 2.1
60000 kPa | 905.8 ± 2 | 890.4 ± 2 | 875.6 ± 2 | 861.5 ± 2.1 | 847.2 ± 2.1 | 833.3 ± 2.1 | 819.2 ± 2.1 | 805.8 ± 2.1 | 795.1 ± 2.1 | 781.7 ± 2.1
70000 kPa | 910.8 ± 2 | 896 ± 2 | 881.5 ± 2 | 867.7 ± 2.1 | 853.9 ± 2.1 | 840.6 ± 2.1 | 827.3 ± 2.1 | 814.3 ± 2.1 | 804.1 ± 2.1 | 790.9 ± 2.1
80000 kPa | 915.8 ± 2 | 901.2 ± 2 | 887.1 ± 2.1 | 873.8 ± 2.1 | 860.3 ± 2.1 | 847.3 ± 2.1 | 834.6 ± 2.1 | 822 ± 2.1 | 812.3 ± 2.1 | 799.8 ± 2.1
90000 kPa | 920.4 ± 2 | 906.3 ± 2 | 892.3 ± 2.1 | 879.6 ± 2.1 | 866.6 ± 2.1 | 854 ± 2.1 | 841.3 ± 2.1 | 829.2 ± 2.1 | 820 ± 2.1 | 808 ± 2.2
100000 kPa | 924.8 ± 2 | 911 ± 2 | 897.6 ± 2.1 | 884.9 ± 2.1 | 872.2 ± 2.1 | 860.1 ± 2.1 | 848 ± 2.1 | 836 ± 2.1 | 827.2 ± 2.1 | 815.5 ± 2.2
110000 kPa | 929.4 ± 2 | 915.7 ± 2 | 902.5 ± 2.1 | 890.3 ± 2.1 | 877.8 ± 2.1 | 866 ± 2.1 | 854.2 ± 2.1 | 842.6 ± 2.1 | 833.9 ± 2.2 | 822.8 ± 2.2
120000 kPa | 933.6 ± 2 | 920.3 ± 2 | 907.3 ± 2.1 | 895.4 ± 2.1 | 883.3 ± 2.1 | 871.6 ± 2.1 | 860.2 ± 2.1 | 848.7 ± 2.1 | 840.2 ± 2.2 | 829.5 ± 2.2
130000 kPa | 938 ± 2 | 924.8 ± 2 | 912 ± 2.1 | 900.3 ± 2.1 | 888.5 ± 2.1 | 877.2 ± 2.1 | 865.8 ± 2.1 | 854.9 ± 2.2 | 846.6 ± 2.2 | 836 ± 2.2
135000 kPa | 939.9 ± 2 | 927 ± 2 | 914.2 ± 2.1 | 902.6 ± 2.1 | 890.8 ± 2.1 | 879.8 ± 2.1 | 868.5 ± 2.1 | 857.7 ± 2.2 | 849.6 ± 2.2 | 838.9 ± 2.2
137500 kPa | 940.9 ± 2 | 927.9 ± 2 | 915.4 ± 2.1 | 903.7 ± 2.1 | 892 ± 2.1 | 881 ± 2.1 | 869.7 ± 2.1 | 859 ± 2.2 | 850.9 ± 2.2 | 840.4 ± 2.2
